Measurements as given in PubChem BioAssay (NCI).
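These data come from cells grown in 96-well plates and exposed to compound for 48 hours at five concentrations. GI50: concentration for 50% inhibition of growth. TGI denotes the concentration required for complete inhibition of growth.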

Experiments:
Test in all cases: NCI-60 cell line screen, 48 h
A498 renal = test system: A498 renal
BT-549 breast = test system: BT-549 breast
HCC-2998 colon = test system: HCC-2998 colon
HCT-116 colon = test system: HCT-116 colon
HL-60(TB) leukemia = test system: HL-60(TB) leukemia
HOP-62 NSCLC = test system: HOP-62 NSCLC
MALME-3M melanoma = test system: MALME-3M melanoma
NCI-H460 lung = test system: NCI-H460 lung
SF-539 CNS = test system: SF-539 CNS
T-47D breast = test system: T-47D breast

Structure (SMILES) | GI50 (A498 renal) | TGI (A498 renal) | GI50 (BT-549 breast) | TGI (BT-549 breast) | GI50 (HCC-2998 colon) | TGI (HCC-2998 colon) | GI50 (HCT-116 colon) | TGI (HCT-116 colon) | GI50 (HL-60(TB) leukemia) | TGI (HL-60(TB) leukemia) | GI50 (HOP-62 NSCLC) | TGI (HOP-62 NSCLC) | GI50 (MALME-3M melanoma) | TGI (MALME-3M melanoma) | GI50 (NCI-H460 lung) [µM] | TGI (NCI-H460 lung) [µM] | GI50 (SF-539 CNS) | TGI (SF-539 CNS) | GI50 (T-47D breast) | TGI (T-47D breast)
OCC(O)C(O)C(O)C(O)c1nnc2c(-c3ccccc3)nc3ccccc3n12 (stereo not drawn) | 38.2 µM | > 100 µM | 56.4 µM | > 100 µM | 62.4 µM | > 100 µM | > 100 µM | > 100 µM | > 100 µM | > 100 µM | > 100 µM | > 100 µM | 38.7 µM | > 100 µM | > 100 | > 100 | > 100 µM | > 100 µM | 28.6 µM | > 100 µM
COc1cc(-c2nn(-c3cccc(NC(=O)CCN4CCN(c5ccccc5)CC4)c3)cc2-c2ccncc2)ccc1Cl | 3.29 µM | 17.9 µM | 3.17 µM | > 100 µM | 3.56 µM | > 100 µM | 2.85 µM | > 100 µM | 3.63 µM | > 100 µM | 4.32 µM | > 100 µM | 2.73 µM | 14.3 µM | 3.11 | 31.3 | 2.53 µM | 18.4 µM | 2.09 µM | > 100 µM
O=CN1N=C(c2cccc(Nc3ccnc4cc(Cl)ccc34)c2)CC1c1ccc(Cl)cc1 (stereo not drawn) | 0.832 µM | 6.18 µM | 1.36 µM | 16.2 µM | 3.36 µM | > 100 µM | 0.597 µM | 5.29 µM | 1.1 µM | 3.81 µM | 1.91 µM | > 100 µM | 1.63 µM | > 100 µM | 0.787 | > 100 | 3.78 µM | 69.5 µM | 2.63 µM | > 100 µM
CCOc1ccc2cc(-c3nn(CC4CCNCC4)c4ncnc(N)c34)ccc2c1 | 11.2 µM | 24.9 µM | 13.4 µM | 27.6 µM | 17.1 µM | 31.5 µM | 13.4 µM | 29.3 µM | 14.7 µM | 32.6 µM | 16.3 µM | 39.4 µM |  |  | 16.8 | 32.8 | 13.9 µM | 26.9 µM | 18.2 µM | 50.5 µM
N#Cc1cc(S(=O)(=O)Nc2nc3cc(Cl)ccc3o2)c(SCc2ccccc2)cc1Cl | 11.5 µM | 23.6 µM | 13.4 µM | 26.2 µM | 12.6 µM | 25.1 µM | 15.4 µM | 28.7 µM |  |  | 12.3 µM | 24.8 µM |  |  | 15.3 | 28.6 | 13.5 µM | 26.4 µM | 15.9 µM | 30.6 µM
N#[N+]c1ccc(Nc2ccccc2)cc1 | > 50 µg/mL | > 50 µg/mL | > 50 µg/mL | > 50 µg/mL | > 50 µg/mL | > 50 µg/mL | > 50 µg/mL | > 50 µg/mL | > 50 µg/mL | > 50 µg/mL | > 50 µg/mL | > 50 µg/mL | > 50 µg/mL | > 50 µg/mL |  |  | > 50 µg/mL | > 50 µg/mL | > 50 µg/mL | > 50 µg/mL
Cc1cc(S(N)(=O)=O)c(S/C(=N\NS(=O)(=O)c2ccccc2)c2ccc(Cl)cc2)cc1Cl | 43 µM | > 100 µM | > 100 µM | > 100 µM |  |  | 77 µM | > 100 µM | 50.6 µM | > 100 µM | > 100 µM | > 100 µM | 65.4 µM | > 100 µM | 65.4 | > 100 | > 100 µM | > 100 µM | > 100 µM | > 100 µM
Nn1c(-c2ccc(Cl)cc2)nc2c(-c3ccc(Cl)cc3)nc3ccc(Cl)cc3c2c1=O | 36 µM | 75.7 µM | 14.5 µM | 60.2 µM |  |  | 5.79 µM | > 100 µM | 2.76 µM | > 100 µM | 22.4 µM | 57.7 µM | 21.3 µM | 65.4 µM | 3.36 | > 100 | 10.4 µM | 36.8 µM | 9.3 µM | 67.2 µM
COc1ccc(C)cc1NC(=S)C#N |  | > 100 µM |  | > 100 µM |  | > 100 µM |  | > 100 µM |  | > 100 µM |  | > 100 µM |  |  |  |  |  | > 100 µM |  | > 100 µM
COc1ccc(/C=C/C(=O)c2cc3c(N)c(C(=O)Nc4ccc(OC)cc4)sc3nc2C)cc1 | 0.108 µM | 0.41 µM | 0.571 µM | > 50 µM | 0.174 µM |  | 0.0634 µM | 17.5 µM | 0.323 µM | 2.22 µM | 0.214 µM | > 50 µM |  |  | 0.155 | 0.484 | 0.327 µM | 1.54 µM | 0.403 µM | > 50 µM
